Assay results as given in the NIST ThermoML archive (doi:10.1016/j.jct.2017.07.004).
± gives the expanded uncertainty stated by the source.

Columns and labels:
[1] = xn = mol fraction of the nth substance listed; conditions: 100 kPa, Liquid, x2 = 0; for viscosity: Concentric cylinders viscometry; for mass density: Vibrating tube method
[2] = 100 kPa, Liquid; for viscosity: Concentric cylinders viscometry; for mass density: Vibrating tube method

SMILES	viscosity ([1]; 293.15 K)	mass density ([1]; 293.15 K)	viscosity ([1]; 298.15 K)	mass density ([1]; 298.15 K)	viscosity ([1]; 303.15 K)	mass density ([1]; 303.15 K)	viscosity ([1]; 308.15 K)	mass density ([1]; 308.15 K)	viscosity ([1]; 313.15 K)	mass density ([1]; 313.15 K)	viscosity ([1]; 318.15 K)	mass density ([1]; 318.15 K)	viscosity ([1]; 323.15 K)	mass density ([1]; 323.15 K)	viscosity ([2]; 298.15 K)	viscosity ([2]; 303.15 K)	viscosity ([2]; 308.15 K)	viscosity ([2]; 313.15 K)	viscosity ([2]; 318.15 K)	viscosity ([2]; 323.15 K)	also measured
CCC(C)O (configuration not stated) [butan-2-ol] + CCC=O	3.67 ± 0.29 mPa·s	806.7 ± 1 kg/m3	3.04 ± 0.24 mPa·s	802.7 ± 1 kg/m3	2.54 ± 0.2 mPa·s	798.4 ± 1 kg/m3	2.13 ± 0.17 mPa·s	794.1 ± 1 kg/m3	1.8 ± 0.14 mPa·s	789.8 ± 1 kg/m3	1.54 ± 0.12 mPa·s	785.2 ± 1 kg/m3	1.33 ± 0.11 mPa·s	780.6 ± 1 kg/m3	–	–	–	–	–	–	–
CCCC(C)O (configuration not stated) [pentan-2-ol] + CCC=O	3.97 ± 0.32 mPa·s	809.3 ± 1 kg/m3	3.32 ± 0.27 mPa·s	805.3 ± 1 kg/m3	2.81 ± 0.23 mPa·s	801.2 ± 1 kg/m3	2.37 ± 0.19 mPa·s	797 ± 1 kg/m3	1.99 ± 0.16 mPa·s	792.7 ± 1 kg/m3	1.66 ± 0.13 mPa·s	788.4 ± 1 kg/m3	1.39 ± 0.11 mPa·s	784 ± 1 kg/m3	–	–	–	–	–	–	–
CCCC(C)O (configuration not stated) [pentan-2-ol]	–	–	–	–	–	–	–	–	–	–	–	–	–	–	3.32 ± 0.27 mPa·s	2.81 ± 0.23 mPa·s	2.37 ± 0.19 mPa·s	1.99 ± 0.16 mPa·s	1.66 ± 0.13 mPa·s	1.39 ± 0.11 mPa·s	–
CC(C)O [propan-2-ol] + CCC=O	2.42 ± 0.19 mPa·s	785.4 ± 1 kg/m3	2.08 ± 0.17 mPa·s	781.1 ± 1 kg/m3	1.8 ± 0.14 mPa·s	776.8 ± 1 kg/m3	1.56 ± 0.13 mPa·s	772.4 ± 1 kg/m3	1.36 ± 0.11 mPa·s	768 ± 1 kg/m3	1.19 ± 0.1 mPa·s	763.4 ± 1 kg/m3	1.05 ± 0.08 mPa·s	758.8 ± 1 kg/m3	–	–	–	–	–	–	–
CCC=O [propanal]	–	–	–	–	–	–	–	–	–	–	–	–	–	–	0.33 ± 0.03 mPa·s	0.31 ± 0.03 mPa·s	0.3 ± 0.03 mPa·s	0.28 ± 0.02 mPa·s	0.27 ± 0.02 mPa·s	0.25 ± 0.02 mPa·s	viscosity ([2]; 293.15 K): 0.34 ± 0.03 mPa·s; mass density ([2]; 293.15 K): 802.4 ± 1 kg/m3; mass density ([2]; 298.15 K): 796.2 ± 1 kg/m3; mass density ([2]; 303.15 K): 790.3 ± 1 kg/m3; mass density ([2]; 308.15 K): 784.5 ± 1 kg/m3; mass density ([2]; 313.15 K): 779 ± 1 kg/m3; mass density ([2]; 318.15 K): 773.5 ± 1 kg/m3; mass density ([2]; 323.15 K): 768.2 ± 1 kg/m3
